What was measured:
Assay in all cases: relative viability (nuclei count vs DMSO), 5 days (fraction); higher = more cells survive
MK-2206 + Phenformin = compound: NC1(c2ccc(-c3nc4ccn5c(=O)[nH]nc5c4cc3-c3ccccc3)cc2)CCC1 [MK-2206] + N=C(N)NC(=N)NCCc1ccccc1 [Phenformin] (partner 250 µM)
In short: (§1)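 One day after seeding in 1536-well plates, lung cancer cell lines were dosed by pin tool. Dosing was either single-drug or a fixed anchor-drug dose plus five library-drug doses (not always all listed) in √10 steps. After 5 days, nuclei were stained in one fix-and-stain step and counted on 4× images, and relative viability is the nuclei count of treated wells over that of vehicle wells, given as the median of duplicate plates.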

MK-2206 + Trametinib = compound: NC1(c2ccc(-c3nc4ccn5c(=O)[nH]nc5c4cc3-c3ccccc3)cc2)CCC1 [MK-2206] + CC(=O)Nc1cccc(-n2c(=O)n(C3CC3)c(=O)c3c(Nc4ccc(I)cc4F)n(C)c(=O)c(C)c32)c1 [Trametinib] (partner 0.02 µM)
In short: as §1

MK-2206 + Tozasertib = compound: NC1(c2ccc(-c3nc4ccn5c(=O)[nH]nc5c4cc3-c3ccccc3)cc2)CCC1 [MK-2206] + Cc1cc(Nc2cc(N3CCN(C)CC3)nc(Sc3ccc(NC(=O)C4CC4)cc3)n2)n[nH]1 [Tozasertib] (partner 0.1 µM)
In short: as §1

Pictilisib + Decitabine = compound: CS(=O)(=O)N1CCN(Cc2cc3nc(-c4cccc5[nH]ncc45)nc(N4CCOCC4)c3s2)CC1 [Pictilisib] + Nc1ncn([C@H]2C[C@H](O)[C@@H](CO)O2)c(=O)n1 [Decitabine] (partner 2 µM)
In short: as §1

MK-2206 + Lapatinib = compound: NC1(c2ccc(-c3nc4ccn5c(=O)[nH]nc5c4cc3-c3ccccc3)cc2)CCC1 [MK-2206] + CS(=O)(=O)CCNCc1ccc(-c2ccc3ncnc(Nc4ccc(OCc5cccc(F)c5)c(Cl)c4)c3c2)o1 [Lapatinib] (partner 2 µM)
In short: as §1

| Cell Line | relative viability (MK-2206 + Phenformin; first compound 0.01 µM) | relative viability (MK-2206 + Phenformin; first compound 0.03162 µM) | relative viability (MK-2206 + Phenformin; first compound 0.3162 µM) | relative viability (MK-2206 + Phenformin; first compound 1 µM) | relative viability (MK-2206 + Trametinib; first compound 0.01 µM) | relative viability (MK-2206 + Trametinib; first compound 0.03162 µM) | relative viability (MK-2206 + Trametinib; first compound 0.3162 µM) | relative viability (MK-2206 + Trametinib; first compound 1 µM) | relative viability (MK-2206 + Tozasertib; first compound 0.01 µM) | relative viability (MK-2206 + Tozasertib; first compound 0.03162 µM) | relative viability (MK-2206 + Tozasertib; first compound 0.3162 µM) | relative viability (MK-2206 + Tozasertib; first compound 1 µM) | relative viability (Pictilisib + Decitabine; first compound 0.02 µM) | relative viability (Pictilisib + Decitabine; first compound 0.06325 µM) | relative viability (Pictilisib + Decitabine; first compound 0.6325 µM) | relative viability (Pictilisib + Decitabine; first compound 2 µM) | relative viability (MK-2206 + Lapatinib; first compound 0.01 µM) | relative viability (MK-2206 + Lapatinib; first compound 0.03162 µM) | relative viability (MK-2206 + Lapatinib; first compound 0.3162 µM) | relative viability (MK-2206 + Lapatinib; first compound 1 µM) |
| --- | --- | --- | --- | --- | --- | --- | --- | --- | --- | --- | --- | --- | --- | --- | --- | --- | --- | --- | --- | --- |
| NCI-H441 | 0.974 | 0.865 | 0.656 | 0.449 | 0.532 | 0.447 | 0.28 | 0.333 | 0.68 | 0.573 | 0.498 | 0.462 | 0.263 | 0.234 | 0.265 | 0.281 |  |  |  |  |
| NCI-H520 | 0.551 | 0.523 | 0.212 | 0.254 | 0.833 | 0.569 | 0.277 | 0.187 | 0.405 | 0.543 | 0.254 | 0.367 | 0.492 | 0.478 | 0.237 | 0.168 | 0.85 | 0.874 | 0.415 | 0.238 |
| CAL-12T | 0.492 | 0.561 | 0.626 | 0.564 | 0.406 | 0.307 | 0.307 | 0.313 | 0.289 | 0.304 | 0.317 | 0.327 |  |  |  |  | 0.682 | 0.698 | 0.667 | 0.454 |
| HCC-827 | 0.45 | 0.434 | 0.402 | 0.326 | 0.541 | 0.548 | 0.491 | 0.444 | 0.441 | 0.438 | 0.366 | 0.412 | 0.258 | 0.363 | 0.288 | 0.311 | 0.173 | 0.193 | 0.205 | 0.179 |
| LC-2-ad | 0.544 | 0.589 | 0.532 | 0.365 | 0.924 | 0.886 | 0.933 | 0.927 | 0.42 | 0.484 | 0.525 | 0.44 | 0.758 | 0.836 | 0.661 | 0.637 | 0.944 | 1.08 | 1.03 | 0.542 |
| NCI-H2170 | 0.398 | 0.44 | 0.426 | 0.404 | 0.943 | 0.898 | 0.878 | 0.87 | 0.789 | 0.717 | 0.659 | 0.763 | 0.46 | 0.445 | 0.462 | 0.366 | 0.312 | 0.276 | 0.263 | 0.258 |
| SW 1573 | 0.419 | 0.457 | 0.27 | 0.237 | 0.608 | 0.516 | 0.444 | 0.489 | 0.242 | 0.152 | 0.175 | 0.127 | 0.688 | 0.587 | 0.354 | 0.285 | 0.88 | 1.15 | 0.987 | 0.982 |
| SK-MES-1 | 0.65 | 0.72 | 0.609 | 0.57 | 0.519 | 0.47 | 0.467 | 0.515 | 0.813 | 0.847 | 0.885 | 0.794 | 0.351 | 0.388 | 0.359 | 0.339 | 0.461 | 0.452 | 0.429 | 0.38 |

From the supplement of paper PMC10307832
